Source: ChEMBL document CHEMBL4411338, “Convenient framework of poly functionalized (E)-2-benzylideno-(Z)-carbazolylideno cyanoacetamides via rearrangements as an efficient antibiofilm inhibitors with SAR study” (Bioorg Med Chem, 2019)
Active and inactive are the calls of the source. The rule behind the calls is not given here.

Assays:
Bacillus subtilis = assay: Antibiofilm activity against tetracycline-resistant Bacillus subtilis assessed as disruption of biofilm at 200 ug/ml after 24 hrs by crystal violet staining based ELISA relative to control; format: functional
Pseudomonas fluorescens = assay: Antibiofilm activity against tetracycline-resistant Pseudomonas fluorescens assessed as disruption of biofilm at 200 ug/ml after 24 hrs by crystal violet staining based ELISA relative to control; format: functional
Priestia megaterium = assay: Antibiofilm activity against ofloxacin-resistant Bacillus megaterium assessed as disruption of biofilm at 200 ug/ml after 24 hrs by crystal violet staining based ELISA relative to control; format: functional
Escherichia coli [1] = assay: Antibiofilm activity against carbapenem-resistant Escherichia coli assessed as disruption of biofilm at 200 ug/ml after 24 hrs by crystal violet staining based ELISA relative to control; format: functional
Pseudomonas aeruginosa [2] = assay: Antibiofilm activity against carbenicillin-resistant Pseudomonas aeruginosa assessed as disruption of biofilm at 200 ug/ml after 24 hrs by crystal violet staining based ELISA relative to control; format: functional
Klebsiella pneumoniae [3] = assay: Antibiofilm activity against tetracycline-resistant Klebsiella pneumoniae assessed as disruption of biofilm at 200 ug/ml after 24 hrs by crystal violet staining based ELISA relative to control; format: functional
Klebsiella pneumoniae [4] = assay: Antibiofilm activity against carbapenem-resistant Klebsiella pneumoniae assessed as disruption of biofilm at 200 ug/ml after 24 hrs by crystal violet staining based ELISA relative to control; format: functional
Escherichia coli [5] = assay: Reduction in reactive oxygen species level in carbapenem-resistant Escherichia coli biofilm at 10 ug/ml measured after 2 to 6 hrs by DCFH-DA probe based UV-spectrofluorimetric method; format: functional, organism-based
Escherichia coli [6] = assay: Antibiofilm activity against carbapenem-resistant Escherichia coli biofilm assessed as reactive oxygen species generation at 10 ug/ml after 1 hr by DCFH-DA probe based UV-spectrofluorimetric method relative to control; format: functional
Escherichia coli [7] = assay: Antibiofilm activity against carbenicillin-resistant Escherichia coli assessed as disruption of biofilm at 10 ug/ml by crystal violet/acridine orange staining based fluorescence microscopic analysis; format: functional, organism-based
Klebsiella pneumoniae [8] = assay: Antibiofilm activity against tetracycline-resistant Klebsiella pneumoniae assessed as disruption of biofilm at 10 ug/ml by crystal violet/acridine orange staining based fluorescence microscopic analysis; format: functional, organism-based
HEK293 [9] = assay: Cytotoxicity against HEK293 cells assessed as reduction in cell viability at >75 ug/ml after 24 hrs by MTT assay; format: cell-based; settings: human, hek293, 24 h
Escherichia coli [10] = assay: Antibiofilm activity against carbenicillin-resistant Escherichia coli assessed as disruption of biofilm at 100 ug/ml after 24 hrs by crystal violet staining based ELISA relative to control; format: functional
Klebsiella pneumoniae [11] = assay: Antibiofilm activity against carbenicillin-resistant Klebsiella pneumoniae assessed as disruption of biofilm at 10 ug/ml by crystal violet/acridine orange staining based fluorescence microscopic analysis; format: functional, organism-based
HEK293 [12] = assay: Cytotoxicity against HEK293 cells assessed as reduction in cell viability up to 75 ug/ml after 24 hrs by MTT assay; format: cell-based; settings: human, hek293, 24 h
Pseudomonas aeruginosa [13] = assay: Antibiofilm activity against carbenicillin-resistant Pseudomonas aeruginosa assessed as disruption of biofilm at 10 ug/ml by crystal violet/acridine orange staining based fluorescence microscopic analysis; format: functional, organism-based
Pseudomonas aeruginosa [14] = assay: Antibiofilm activity against carbenicillin-resistant Pseudomonas aeruginosa assessed as disruption of biofilm at 100 ug/ml after 24 hrs by crystal violet staining based ELISA relative to control; format: functional
Klebsiella pneumoniae [15] = assay: Antibiofilm activity against tetracycline-resistant Klebsiella pneumoniae assessed as disruption of biofilm at 100 ug/ml after 24 hrs by crystal violet staining based ELISA relative to control; format: functional
Klebsiella pneumoniae [16] = assay: Antibiofilm activity against carbenicillin-resistant Klebsiella pneumoniae assessed as disruption of biofilm at 200 ug/ml after 24 hrs by crystal violet staining based ELISA relative to control; format: functional

Row | SMILES | inhibition at 200 µg/mL (Bacillus subtilis) | inhibition at 200 µg/mL (Pseudomonas fluorescens) | inhibition at 200 µg/mL (Priestia megaterium) | inhibition at 200 µg/mL (Escherichia coli [1]) | inhibition at 200 µg/mL (Pseudomonas aeruginosa [2]) | inhibition at 200 µg/mL (Klebsiella pneumoniae [3]) | inhibition at 200 µg/mL (Klebsiella pneumoniae [4]) | Activity (Escherichia coli [5]) | fold change (FC) (Escherichia coli [6]) | Activity (Escherichia coli [7]) | Activity (Klebsiella pneumoniae [8]) | Activity (HEK293 [9]) | inhibition at 100 µg/mL (Escherichia coli [10]) | Activity (Klebsiella pneumoniae [11]) | Activity (HEK293 [12]) | Activity (Pseudomonas aeruginosa [13]) | inhibition at 100 µg/mL (Pseudomonas aeruginosa [14]) | inhibition at 100 µg/mL (Klebsiella pneumoniae [15]) | inhibition at 200 µg/mL (Klebsiella pneumoniae [16])
1 | Cc1ccc2[nH]c3c(c2c1)CCC(=C\c1ccc(F)cc1)/C3=C(\C#N)C(N)=O | 56% | 11% | 32.4% | 13.4% | 19.3% | 0% | 17% | – | – | – | – | – | – | – | – | – | – | – | –
2 | Cc1cccc2c3c([nH]c12)C(=C(/C#N)C(N)=O)/C(=C/c1cccs1)CC3 | 12% | 0% | 17.6% | 22.8% | 24.1% | 27.9% | 12% | – | – | – | – | – | – | – | – | – | – | – | –
3 | CCOc1ccc(/C=C2\CCc3c([nH]c4ccc(C)cc34)\C2=C(\C#N)C(N)=O)cc1OCC | 8% | 18% | 11.2% | 27.4% | 29.3% | 23.3% | 16% | – | – | – | – | – | – | – | – | – | – | – | –
4 | COc1ccc(/C=C2\CCc3c([nH]c4c(C)cccc34)\C2=C(\C#N)C(N)=O)cc1OC | 31% | 0% | 6.1% | 84.6% | 12.5% | 23% | 16% | – | – | – | – | – | – | – | – | – | – | – | –
5 | O=C(O)c1cn(C2CC2)c2cc(N3CCNCC3)c(F)cc2c1=O [CIPROFLOXACIN] | 23% | 38% | 56.3% | 45% | 49.7% | 43% | 25.5% | – | – | – | – | – | – | – | – | – | – | – | –
6 | Cc1ccc2c3c([nH]c2c1)C(=C(/C#N)C(N)=O)/C(=C/c1ccccc1)CC3 | 45% | 26.4% | 13.1% | 16% | 17% | 15.6% | 14% | – | – | – | – | – | – | – | – | – | – | – | –
7 | Cc1cccc2c3c([nH]c12)C(=C(/C#N)C(N)=O)/C(=C/c1ccccc1)CC3 | 23% | 0% | 31.4% | 14.6% | 4.3% | 1.9% | 21% | – | – | – | – | – | – | – | – | – | – | – | –
8 | Cc1ccc2c3c([nH]c2c1)C(=C(/C#N)C(N)=O)/C(=C/c1cccs1)CC3 | 21% | 28% | 15.7% | 9.8% | 18.9% | 3.5% | 18% | – | – | – | – | – | – | – | – | – | – | – | –
9 | Cc1ccc2[nH]c3c(c2c1)CCC(=C\c1cccc(F)c1)/C3=C(\C#N)C(N)=O | 10% | 15% | 21.1% | 24.8% | 25.3% | 0% | 29% | – | – | – | – | – | – | – | – | – | – | – | –
10 | Cc1ccc2[nH]c3c(c2c1)CCC(=C\c1ccccc1)/C3=C(\C#N)C(N)=O | 23% | 31% | 21.4% | 85% | 81% | 71% | 71% | Active | 2 | Active | Active | Toxic | 89% | Active | Non-Toxic | Active | 79% | – | –
11 | Cc1ccc2[nH]c3c(c2c1)CCC(=C\c1cccs1)/C3=C(\C#N)C(N)=O | 28% | 73% | 4.5% | 70% | 29.3% | 81% | 74% | – | – | – | – | – | 78% | – | – | – | – | 78% | –
12 | COc1ccc(/C=C2\CCc3c([nH]c4ccc(C)cc34)\C2=C(\C#N)C(N)=O)cc1OC | 21% | 31% | 17.1% | 80% | 67% | 78% | 78% | – | – | – | – | – | 78% | – | – | – | – | – | 82%
13 | COc1ccc(/C=C2\CCc3c([nH]c4cc(C)ccc34)\C2=C(\C#N)C(N)=O)cc1OC | 32% | 5% | 10.9% | 17.2% | 15.3% | 18.3% | 12% | – | – | – | – | – | – | – | – | – | – | – | –
14 | Cc1ccc2[nH]c3c(c2c1)CCC(=C\c1ccccn1)/C3=C(\C#N)C(N)=O | 26% | 29% | 18.2% | 21.7% | 17% | 0% | 32% | – | – | – | – | – | – | – | – | – | – | – | –
15 | Cc1ccc2[nH]c3c(c2c1)CCC(=C\c1cccc(Br)c1)/C3=C(\C#N)C(N)=O | 10% | 12% | 6.3% | 33.5% | 13.2% | 28.3% | 20.7% | – | – | – | – | – | – | – | – | – | – | – | –
